The nature of experiment [1]: Antagonist activity at beta1-adrenoceptor (unknown origin) at 1 uM. More on the design: species or system Homo sapiens.
Experiment [2] deals with Dual specificity protein kinase CLK1 (Mus musculus, UniProt P22518). Description: Inhibition of mouse recombinant CLK1 expressed in bacterial system using GRSRSRSRSRSR as substrate incubated for 30 mins by ADP-Glo assay kit method. A general note: In ADP-Glo the light output rises with the ADP produced.
Experiment [3] has as its target Serine/threonine-protein kinase pim-1 (Homo sapiens, UniProt P11309). Description: Inhibition of human PIM1 expressed in bacterial system using histone H1 as substrate incubated for 30 mins by ADP-Glo assay kit method.
In experiment [4] the target is Cholinesterase (Homo sapiens) (UniProt P06276). Description: Inhibition of BuChE (unknown origin) by Ellman method. As to conditions: concentration not given here. Background: Ellman's reagent forms a yellow product with free thiols.
Chain of Cholinesterase (Homo sapiens) (P06276 whole entry): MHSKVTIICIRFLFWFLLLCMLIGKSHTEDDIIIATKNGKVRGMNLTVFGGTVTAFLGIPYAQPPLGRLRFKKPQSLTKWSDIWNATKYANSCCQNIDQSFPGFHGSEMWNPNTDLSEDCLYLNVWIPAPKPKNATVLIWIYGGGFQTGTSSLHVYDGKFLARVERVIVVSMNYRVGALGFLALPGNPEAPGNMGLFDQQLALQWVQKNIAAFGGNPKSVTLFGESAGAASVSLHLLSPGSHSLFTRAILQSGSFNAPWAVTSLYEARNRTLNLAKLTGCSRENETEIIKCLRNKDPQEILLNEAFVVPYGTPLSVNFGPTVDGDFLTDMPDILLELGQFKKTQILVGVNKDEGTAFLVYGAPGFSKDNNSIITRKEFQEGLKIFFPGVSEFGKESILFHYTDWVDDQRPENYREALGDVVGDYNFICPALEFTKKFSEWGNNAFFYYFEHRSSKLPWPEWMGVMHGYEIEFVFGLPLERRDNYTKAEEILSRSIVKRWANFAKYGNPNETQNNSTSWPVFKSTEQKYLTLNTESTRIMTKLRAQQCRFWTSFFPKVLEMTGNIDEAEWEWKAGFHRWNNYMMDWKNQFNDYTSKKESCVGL
The nature of experiment [5]: Antioxidant activity assessed as ABTS radical scavenging activity. It counts as functional.

A word on the IC50: it is the concentration needed to halve the response being measured. As a reminder, the inhibition is the share of the control response that was lost under treatment. A higher inhibition goes with strong suppression.

Structures are written as SMILES.

Chain of Dual specificity protein kinase CLK1 (P22518 whole entry): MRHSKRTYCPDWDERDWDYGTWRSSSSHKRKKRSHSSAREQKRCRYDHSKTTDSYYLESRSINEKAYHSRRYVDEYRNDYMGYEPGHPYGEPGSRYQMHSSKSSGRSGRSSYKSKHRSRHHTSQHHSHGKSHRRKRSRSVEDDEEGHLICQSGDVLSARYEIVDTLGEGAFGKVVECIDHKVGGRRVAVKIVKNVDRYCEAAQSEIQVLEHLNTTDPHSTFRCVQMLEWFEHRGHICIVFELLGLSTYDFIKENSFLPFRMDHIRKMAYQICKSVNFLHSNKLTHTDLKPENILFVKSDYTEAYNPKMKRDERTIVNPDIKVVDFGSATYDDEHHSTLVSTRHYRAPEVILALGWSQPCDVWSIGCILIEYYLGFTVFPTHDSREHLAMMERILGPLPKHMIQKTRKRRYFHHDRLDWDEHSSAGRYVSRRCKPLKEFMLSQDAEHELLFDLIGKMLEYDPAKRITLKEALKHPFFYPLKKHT
Chain of Serine/threonine-protein kinase pim-1 (P11309 whole entry): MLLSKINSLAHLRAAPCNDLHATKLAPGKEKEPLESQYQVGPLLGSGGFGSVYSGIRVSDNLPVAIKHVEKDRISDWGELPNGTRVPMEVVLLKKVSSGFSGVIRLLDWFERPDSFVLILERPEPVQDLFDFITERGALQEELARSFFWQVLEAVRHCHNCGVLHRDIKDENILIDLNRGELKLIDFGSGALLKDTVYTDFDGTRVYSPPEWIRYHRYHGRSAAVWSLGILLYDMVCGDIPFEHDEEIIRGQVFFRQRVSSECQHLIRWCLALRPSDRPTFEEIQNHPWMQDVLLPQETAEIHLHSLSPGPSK

Compound `COc1cc2c(cc1OC)CC(=O)N(CCCN(C)C[C@@H](O)COc1ccccc1C)CC2` had a 50% inhibitory concentration (IC50) in experiment [1] of 10400 nM. As for `NN1C(=O)/C(=C2\C(=O)Nc3ccc(Br)cc32)SC1=S`, the figures for the IC50 in experiment [2] and in experiment [3] were 4670 nM and 1800 nM, respectively. Turning to `COc1cc(/C=C/C(=O)OCCOCCNC(=O)/C=C/c2ccc(OC(C)=O)c(OC(C)=O)c2)ccc1OC(C)=O`, the inhibition in experiment [4] is 95%. Consider `CN1C(=O)/C(=C2/SC(=S)N(N)C2=O)c2cc(Br)ccc21`, for which the IC50 in experiment [2] was more than 10000 nM; in experiment [3], 770 nM. `CCCCCCCCCCCCCCCCOC(=O)C1=C(C)NC(C)=C(C(=O)OCCCCCCCCCCCCCCCC)C1c1ccccc1[N+](=O)[O-]`: the IC50 in experiment [5] was 2450 nM.

Source of the values: ChEMBL document CHEMBL5120807, “Recent advances in the development of active hybrid molecules in the treatment of cardiovascular diseases” (Bioorg Med Chem, 2022).
